Patent US7022481B2, “Methods of using glucan synthase pathway reporter genes to screen for antifungal compounds” (Rosetta Inpharmatics LLC, priority 2002, dated 2006)
In brackets after ≈: the same amount, converted by molar mass. Read-outs that look alike come from different tables or passages of the source.

Experiments:
Format in all cases: cell-based, S. cerevisiae
wild-type S288C strain = test: microbe, parasite or virus in culture
Experimental: First, comprehensive gene expression profiles for S. cerevisiae grown in the presence of known inhibitors of glucan synthase were constructed. Enfumafungin and Ascosteroside were two known glucan synthase inhibitors used in the present invention. Prior to exposing the GRM to these two glucan synthase inhibitors, growth inhibition studies were performed on wild-type S288C strain in order to determine the appropriate concentrations for GRM profiling.

ABY12 strain = test: growth inhibition (IC values) in the ABY12 strain
Description: 3. The drug-like agents selected for the assay were the GS inhibitors Enfumafungin, Ascosteroside, and Dihydropapulacandin B; along with the Elongation Factor 2 (EF2) inhibitor Sordarin, to be used as a negative control. These four drugs were all added to the second column of each 96-well assay plate and serially diluted (1 to 2) into Casamino Acids media plus 2% DMSO in columns 3–12, so that column 2 of each plate will contain the highest concentration of each drug and column 12 will contain the lowest. The first column of each plate was used as a “no drug” control, containing only Casamino Acids media plus 2% DMSO. The concentrations for each drug that were added to the wells in column 2 are shown in Table VI (Maximum Concentration Tested) along with the rows of each plate they were added to (Table VI, Rows).
5. After the 24 hour incubation the 96-well assay plates were imaged in a Molecular Dynamics Fluorimager SI to measure the fluorescence from the GFP reporters. […] Additionally, none of the compounds tested induced increased fluorescence from the reporter for inhibition of sterol biosynthesis, HES1 (FIG. 20). […] Of note here is the fact that the highest concentrations tested were all substantially greater than the measured IC50's for these compounds in the ABY12 strain (Table VI). Therefore these strains are capable of reporting on inhibition of GS even at drug concentrations that inhibit cell growth. This is an important characteristic of this assay as the preferred method of high-throughput screening would be to perform the screens at one high concentration for every compound assayed. It has been previously shown that the HES1 reporter strain is capable of performing under such assay conditions in a 384-well formatted high-throughput screen of a combinatorial library (WO 00/58521, PCT published application).

[1] = tested on: gene reporters in the GRM (promoter-GFP fusions); test: Genome Reporter Matrix (GRM) reporter gene expression profiling
Description: Genome Reporter Matrix™ (GRM) technology was used to generate the gene expression profiles that the glucan synthase inhibition treatments induced in the yeast S. cerevisiae. The GRM was used to generate comprehensive gene expression profiles in the yeast S. cerevisiae. The GRM used in the present invention was a matrix of units comprising living S. cerevisiae cells, the cells in each unit containing one S. cerevisiae reporter fusions (GRM construct) representative of essentially every known gene and hypothetical open reading frame (ORF) of S. cerevisiae. The GRM constructs used in the present invention comprised a promoter, 5′ upstream untranslated region and usually the first four amino acids from one of each hypothetical ORF fused to a gene encoding the green fluorescent protein (GFP).
Solutions of test compounds were added directly to the solid agar growth media plates prior to addition of S. cerevisiae strains. The individual strains comprising the GRM were maintained as independent colonies (and cultures) in a 96-well format, in medium selecting for the URA2-containing reporter plasmid. Prior to each experiment, fresh dilutions of the reporter-containing strains were inoculated and grown overnight at 30° C. A Hamilton MicroLab 4200, a multichannel gantry robot equipped with a custom pin tool device capable of dispensing 50 nanoliter volumes in a highly reproducible manner, was used to array the matrix of S. cerevisiae strains in a uniform manner onto solid agar growth media at a density of 1536 reporter strains per 110 cm^2 plate. Fifty nanoliters of S. cerevisiae liquid cultures arrayed onto solid medium by the Hamilton Microlab 4200 results in colony-to-colony signal reproducibility of less than 5% variation. Once arrayed, each plate was grown at 30° C. for 18 hours or at 25° C. for 24 hours.
The level of fluorescence expressed from each reporter gene fusion was determined using a Molecular Dynamics Fluorimager SI. Custom image analysis software was used to quantitate the fluorescence of each colony in the images.

[2] = tested on: lawn of the YOL113W (SKM1) reporter strain (ABY12); test: solid plate halo assay, growth of lawn; conditions: 20 ul of 200 μg/ml (low) and 20 ul of 1 mg/ml (high) on paper disc, 23 hour incubation
Experimental: (§1) This assay is meant to mimic assays where natural product producing strains would be either plated onto a lawn of our ABY12 reporter carrying strains, or an agar overlay containing the ABY12 reporter strain would be placed over a plate containing natural product producing strains, the purpose being identifying strains that are producing molecules that inhibit GS.
(§2) 1. The YOL113W (SKM1) reporter transformed into wild-type S. Cerevisiae strain ABY12 was grown on a solid Casamino Acids media plate.
(§3) 2. The culture from the solid media plate was used to inoculate a 50 ml liquid culture in Casamino Acids media. This liquid culture was grown overnight at 30 degrees Celsius. The culture was grown to a final OD600=10.5. This culture was then diluted in Casamino Acids media to an OD600=1, or 1×10^7 cells per milliliter. Five-hundred microliters of cell culture (5×10^6 cells) was then spread evenly over the surface of each of two 100 mm solid agar-Casamino-acids-media plates to form a lawn of the YOL113W (SKM1) reporter strain on each plate.
(§4) 3. Two 6 mm diameter blank paper discs (BECTON DICKINSON® #231039) were placed on top of the agar surface of each plate evenly spaced apart. […]
(§5) 4. After a 23 hour incubation the assay plates were imaged in a Molecular Dynamics Fluorimager SI to measure the fluorescence from the GFP reporters. […]

YOL113W (SKM1) reporter = test: solid plate halo assay, reporter fluorescence; conditions: 20 ul of 200 μg/ml and 1 mg/ml on paper disc, 23 hour incubation
Experimental: as §1, §2, §3, §4, §5

[3] = tested on: YOL113W (SKM1), YNR066C, YLR121C (YPS3), YKL161C, and YAR050W (FLO1) GFP reporters; test: liquid high-throughput like 96-well GFP reporter assay, glucan synthase pathway reporters; conditions: serial 1 to 2 dilutions, ~24 hours at 30 degrees Celsius, five GS reporters
Experimental: The five reporters selected were: YOL113W (SKM1), YNR066C, YLR121C (YPS3), YKL161C, and YAR050W (FLO1). Another reporter, YOR237W (HES1), was selected as a negative control.
1. Reporters transformed into wild-type S. Cerevisiae strain ABY12 were grown on solid Casamino Acids media plates.
2. The cultures from the solid media plates were used to inoculate 50 ml liquid cultures in Casamino Acids media. These liquid cultures were grown overnight at 30 degrees Celsius. The cultures were all grown to a final OD600˜=8 (Table V).
These cultures were then diluted in Casamino Acids media to and OD600=2.
3. The drug-like agents selected for the assay were the GS inhibitors Enfumafungin, Ascosteroside, and Dihydropapulacandin B; along with the Elongation Factor 2 (EF2) inhibitor Sordarin, to be used as a negative control. […]
5. After the 24 hour incubation the 96-well assay plates were imaged in a Molecular Dynamics Fluorimager SI to measure the fluorescence from the GFP reporters. […] Additionally, none of the compounds tested induced increased fluorescence from the reporter for inhibition of sterol biosynthesis, HES1 (FIG. 20). […] Of note here is the fact that the highest concentrations tested were all substantially greater than the measured IC50's for these compounds in the ABY12 strain (Table VI). […]

[4] = growth inhibition, wild-type S288C strain
[5] = Saccharomyces cerevisiae, read-out: IC50

Row | Compound | IC25 (wild-type S288C strain; [4]) | IC50 (wild-type S288C strain; [4]) | effectiveness in growth inhibition assays (wild-type S288C strain; wild-type S288C strain) | IC25 (ABY12 strain) | IC50 (ABY12 strain) | expression response of reporter YKL161C ([1]; 5 μg/ml in 1% DMSO, FIG. 9) | number of gene reporters significantly up- or down-regulated ([1]; lowest concentration (5.0 μg/ml), p<=0.01, of roughly 6,000 gene reporters in the GRM) | IC75 (ABY12 strain) | IC50 (wild-type S288C strain; Saccharomyces cerevisiae) | IC75 (wild-type S288C strain; [4]) | IC50 (ABY12 strain; [5]) | growth inhibition of the GRM ([1]; 0.60 μg/ml and 0.75 μg/ml) | growth of the lawn around paper disc (halo) [2] | induction of the YOL113W (SKM1) reporter (fluorescence at edge of halo) (YOL113W (SKM1) reporter) | induction of the YOL113W (SKM1) reporter (fluorescence at edge of halo) (YOL113W (SKM1) reporter; listed as enfumafungin) | fluorescence from the GFP reporters versus no drug controls [3]
1 | C=C(CC[C@H](C)[C@H]1C[C@@H](O)[C@@]2(C(=O)O)C3=C(CC[C@]12C)[C@@]1(C)CC[C@H](O[C@H]2O[C@H](CO)[C@@H](OC)[C@H](O)[C@H]2O)C(=C)[C@@H]1CC3)C(C)C [Ascosteroside] | 6.3 µg/mL (≈ 9.74 µM) | 19 µg/mL (≈ 29.4 µM) | effective | 6.3 µg/mL (≈ 9.74 µM) | 19 µg/mL (≈ 29.4 µM) | highly up-regulated | 318 |  |  |  |  |  |  |  |  | 
2 | Dihydropapulacandin B |  |  |  | 3.7 µg/mL | 4.4 µg/mL |  |  | 5.3 µg/mL |  |  |  |  |  |  |  | 
3 | CC(=O)O[C@@H]1C[C@]23C4=CC[C@@]5(C)[C@H](C(=O)O)[C@@](C)([C@H](C)C(C)C)CC[C@]5(C)[C@H]4CC[C@H]2[C@@](C)(COC3O)[C@H]1O[C@@H]1O[C@H](CO)[C@@H](O)[C@H](O)[C@H]1O (stereo partly shown) [Enfumafungin] | 0.54 µg/mL (≈ 0.762 µM) |  | effective | 0.54 µg/mL (≈ 0.762 µM) |  |  |  | 0.9 µg/mL (≈ 1.27 µM) | 0.69 µg/mL (≈ 0.973 µM) | 0.9 µg/mL (≈ 1.27 µM) | 0.69 µg/mL (≈ 0.973 µM) | too much growth inhibition | inhibited the growth of the lawn | significantly induced | upregulating SKM1 reporter | 
4 | CO[C@H]1[C@@H](O)[C@H](O)[C@H](OC[C@@]23C[C@@H]4[C@H](C)CC[C@H]4[C@@]4(C=O)CC2C=C(C(C)C)[C@@]34C(=O)O)O[C@@H]1C [Sordarin] |  |  |  | 1.1 µg/mL (≈ 2.23 µM) |  |  |  | 2.5 µg/mL (≈ 5.08 µM) |  |  | 1.5 µg/mL (≈ 3.05 µM) |  |  |  |  | None of the reporters, however, showed any increase in fluorescence
